What was measured:
tcpA-lacZ = assay: β-galactosidase reporter assay of tcpA-lacZ transcriptional fusion; format: cell-based, Vibrio cholerae; details: 5 μM and 0.5 μM
[1] = system: V. cholerae classical strain O395; assay: Autoagglutination assay of O395 cultures; format: cell-based, Vibrio cholerae
ToxT [2] = target: T1, ToxT (Vibrio cholerae serotype O1, UniProt A5F384); format: biochemical; details: for inhibition of ToxT DNA-binding in dose-response EMSA, compared with virstatin: compounds 10, 1, 0.1 μM, virstatin 100, 10, 1, 0.1 μM
T1 construct: made in house; host or cells: E. coli BL21-CodonPlus (DE3)-RIL
T1 sequence (A5F384 1-276): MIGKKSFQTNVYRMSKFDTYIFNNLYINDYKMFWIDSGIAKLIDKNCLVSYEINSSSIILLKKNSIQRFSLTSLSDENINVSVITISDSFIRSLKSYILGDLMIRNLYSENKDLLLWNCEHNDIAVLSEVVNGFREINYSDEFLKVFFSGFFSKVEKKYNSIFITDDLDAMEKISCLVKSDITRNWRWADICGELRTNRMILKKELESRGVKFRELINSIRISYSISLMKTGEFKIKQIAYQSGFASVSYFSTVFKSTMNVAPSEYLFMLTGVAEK

ToxT [3] = target: T1, ToxT; assay: Competition STD NMR with virstatin as indicator; format: binding; details: 20 μM ToxT, 100 μM virstatin; based on KD of virstatin and decrease in STD signal; read-out: calculated Ki
Protocol: (§1) Virstatin was solubilized in DMSO-d6 and compounds 5a and 3b in DMSO, at working stock concentrations of 35.5 mM, 394 mM, and 50.5 mM, respectively. Purified ToxT in protein buffer (20 mM Tris, 1 mM EDTA, 320 mM NaCl, pH 7.5) was used at a final concentration of 20 μM. All samples contained 50 μM 3-(Trimethylsilyl)-1-propanesulfonic acid sodium salt (TSP) as an internal standard and 5% D2O. All NMR experiments were carried out on a Bruker Avance 600 MHz or 700 MHz spectrometer equipped with a TCI cryogenic probe. Samples were stored at 4 °C prior to acquisition.
Virstatin was used as the STD indicator at a concentration of 100 μM. Compounds 5a and 3b were added at concentrations of 20–200 μM. STD spectra were obtained as above, with a saturation time of 3 seconds. The calculation of the competitive inhibition was as follows[60]:
where CI is the concentration of inhibitor with unknown KD (compound 5a or 3b), CL is the concentration of ligand with known KD (virstatin), KD is that of virstatin, and i is the inhibition expressed as a fraction: [drawing 6] .

ToxT [4] = target: T1, ToxT; assay: STD NMR determination of KD; format: binding
Protocol: as §1
KD determination followed the protocol outlined by Angulo et al.[57]. For on-resonance spectra, the protein was saturated at 500 Hz or 583.33 Hz for the 600 MHz and 700 MHz NMR spectrometers, respectively, for 1–4 seconds utilizing a train of 50 ms Gaussian pulses. For off-resonance spectra, the sample was irradiated at −2000 Hz. The total relaxation delay was 7 seconds. Data acquisition consisted of 128 scans and 32,768 points. The STD-effect was calculated by measuring the intensity of the virstatin aromatic proton peaks in the on- and off-resonance spectra:
The KD of virstatin was calculated using Michaelis-Menten kinetics. The STD-AF0 was plotted as a function of the ligand concentration to construct the binding (Langmuir) isotherm: […]

Row | Compound | autoagglutination of O395 cultures ([1]; 50 nM) | autoagglutination of O395 cultures ([1]; 0.5 μM) | inhibition of ToxT DNA-binding in dose-response EMSA, compared with virstatin (ToxT [2]) | further results
1 | CCCCCC/C=C\CCCCCCCC(=O)O [cis-palmitoleic acid, reference compound] |  |  |  | inhibition of tcpA transcription (relative β-galactosidase activity of tcpA-lacZ) (tcpA-lacZ): essentially no effect; autoagglutination of O395 cultures ([1]; 0.5 μM and 0.05 μM): no effect
2 | Cc1cccc2cccc(/C=C/CC(=O)O)c12 [3b] | inhibited | completely abolished detectable autoagglutination | inhibited DNA-binding more strongly than virstatin | Ki (ToxT [3]): 10 µM
3 | O=C(O)CCCN1C(=O)c2cccc3cccc(c23)C1=O [virstatin, reference compound] |  | did not |  | ToxT binding to tcpA promoter DNA (EMSA) (ToxT [2]; 100 μM compound, 0.78 μM ToxT): prevented ToxT from binding DNA; Kd (ToxT [4]; from STD spectra of aromatic protons Ha,b): 483 ± 109 µM; Kd (ToxT [4]; from STD spectra of aromatic protons He,f): 331 ± 65 µM
4 | CCCCCCCC/C=C\CCCCCCCC(=O)O [oleic acid, reference compound] |  |  |  | inhibition of tcpA transcription (relative β-galactosidase activity of tcpA-lacZ) (tcpA-lacZ): essentially no effect; autoagglutination of O395 cultures ([1]; 0.5 μM and 0.05 μM): no effect
5 | Cc1cccc2cccc(CCC(=O)O)c12 [4a] | inhibited | completely abolished detectable autoagglutination | inhibited DNA-binding more strongly than virstatin | 
6 | Cc1cccc2cccc(CCCC(=O)O)c12 [4b] | inhibited | completely abolished detectable autoagglutination | inhibited DNA-binding more strongly than virstatin | 
7 | Cc1cccc2c1C(CCC(=O)O)CCC2 (stereo not shown) [5a] | inhibited | completely abolished detectable autoagglutination | inhibited DNA-binding more strongly than virstatin | Ki (ToxT [3]): 31 µM

From publication PMC5362913, “A new class of inhibitors of the AraC family virulence regulator Vibrio cholerae ToxT” (Scientific Reports, 2017)
